Test results taken from patent US6914045B2, “Glycopeptide antibiotics” (Wyeth Holdings Corporation, priority 2001, dated 2005).
Converted amounts (≈) assume the structure as drawn.

Key:
[1] = system: Staphylococcus sp.; assay: in vitro antibacterial evaluation, MIC by broth dilution; assay type: cell-based; settings: broth dilution, 18 hours at 35° C.; for MIC Staphylococcus aureus (GC 1131): strain GC 1131
How it was run: (§1)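 Inoculum 5×10^5 CFU/mL; concentrations 64 to 0.06 μg/mL; MIC defined as lowest inhibitory level. Conducted by broth dilution under NCCLS guidelines.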

[2] = system: Enterococcus sp.; assay: as above; assay type: cell-based; settings: broth dilution, 18 hours at 35° C.; for MIC Enterococcus faecalis (ATCC 29212): strain ATCC 29212; for MIC Enterococcus faecalis (GC 2242): strain GC 2242; for MIC Enterococcus faecium (GC 2243): strain GC 2243; for MIC Enterococcus faecalis (GC 2691): strain GC 2691; for MIC Enterococcus faecalis (GC 3059): strain GC 3059; for MIC Enterococcus faecalis (GC 4552): strain GC 4552; for MIC Enterococcus faecalis (GC 4553): strain GC 4553; for MIC Enterococcus faecalis (GC 4554): strain GC 4554; for MIC Enterococcus faecium (GC 4556): strain GC 4556; for MIC Enterococcus faecium (GC 4557): strain GC 4557; for MIC Enterococcus avium (GC 4558): strain GC 4558; for MIC Enterococcus faecalis (GC 6189): strain GC 6189
How it was run: as §1

[3] = system: Escherichia coli; assay: as above; assay type: cell-based
How it was run: as §1

[4] = system: Streptococcus sp.; assay: as above; assay type: cell-based; settings: broth dilution, 18 hours at 35° C.; for MIC Streptococcus pneumoniae (ATCC 6301): strain ATCC 6301; for MIC Streptococcus pneumoniae (GC 1894): strain GC 1894; for MIC Streptococcus pyogenes (GC 4563): strain GC 4563; for MIC Streptococcus agalactiae (GC 4564): strain GC 4564; for MIC Streptococcus pneumoniae (GC 4565): strain GC 4565
How it was run: as §1

[5] = system: Staphylococcus aureus-SMITH (GC 4543); assay: acute lethal infection in mice; assay type: in vivo; settings: acute lethal infection, female CD-1 mice, intraperitoneal challenge, intravenous 30 min. after infection, 7 day survival
How it was run: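 Protocol: bacteria suspended in trypticase soy broth or hog gastric mucin injected ip into female CD-1 mice at a level killing untreated controls in 24-48 hr; compound given iv in saline or 5% dextrose 30 min post-challenge; five mice per dose; ED50 derived from pooled 7 day survival of three runs.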

COc1ccc(Oc2cccc(C3OCC4OC(OC5C(CO)OC(Oc6ccc(CC7NC(=O)C(C(C)c8ccccc8)NC(=O)CNC(=O)C(CO)NC(=O)C(C(O)C8CNC(=N)N8C8OC(CO)C(O)C(O)C8O)NC(=O)C(C(O)C8CNC(=N)N8)NC7=O)cc6)C(O)C5O)C(O)C(O)C4O3)c2)cc1 (stereo not drawn) [Example 180, Cyclo[glycyl-β-methylphenylalanyl-O-[4-O-[4,6-O-[3-(4-methoxyphenoxy)benzylidene]hexopyranosyl]hexopyranosyl]tyrosyl-3-(2-iminoimidazolidin-4-yl)seryl-3-(3-hexopyranosyl-2-iminoimidazolidin-4-yl)serylseryl]]
MIC Staphylococcus aureus (GC 1131) ([1]; inoculum 5×10^5 CFU/mL): 2 µg/mL (≈ 1.33 µM) | MIC Staphylococcus aureus (ATCC 29213) ([1]; strain ATCC 29213): 2 µg/mL (≈ 1.33 µM) | MIC Staphylococcus aureus (GC 1131) [1]: 2 µg/mL (≈ 1.33 µM) | MIC Staphylococcus aureus (GC 3051) ([1]; strain GC 3051): 1 µg/mL (≈ 0.664 µM) | MIC Staphylococcus aureus (GC 3053) ([1]; strain GC 3053): 2 µg/mL (≈ 1.33 µM) | MIC Staphylococcus aureus (GC 4541) ([1]; strain GC 4541): 2 µg/mL (≈ 1.33 µM) | MIC Staphylococcus aureus (GC 4542) ([1]; strain GC 4542): 2 µg/mL (≈ 1.33 µM) | MIC Staphylococcus aureus (GC 4544) ([1]; strain GC 4544): 2 µg/mL (≈ 1.33 µM) | MIC Staphylococcus aureus (GC 4545) ([1]; strain GC 4545): 2 µg/mL (≈ 1.33 µM) | MIC Staphylococcus aureus-SMITH (GC 4543) ([1]; strain GC 4543): 2 µg/mL (≈ 1.33 µM) | MIC Staphylococcus haemolyticus (GC 4546) ([1]; strain GC 4546): 2 µg/mL (≈ 1.33 µM) | MIC Coagulase Negative Staphylococcus (GC 4547) ([1]; strain GC 4547): 2 µg/mL (≈ 1.33 µM) | MIC Coagulase Negative Staphylococcus (GC 4548) ([1]; strain GC 4548): 1 µg/mL (≈ 0.664 µM) | MIC Coagulase Negative Staphylococcus (GC 4549) ([1]; strain GC 4549): 1 µg/mL (≈ 0.664 µM) | MIC Coagulase Negative Staphylococcus (GC 4551) ([1]; strain GC 4551): 1 µg/mL (≈ 0.664 µM) | MIC Coagulase Negative Staphylococcus (GC 6257) ([1]; strain GC 6257): 0.5 µg/mL (≈ 0.332 µM) | MIC Enterococcus faecalis (ATCC 29212) ([2]; inoculum 5×10^5 CFU/mL): 4 µg/mL (≈ 2.66 µM) | MIC Enterococcus faecalis (GC 2242) ([2]; inoculum 5×10^5 CFU/mL): 4 µg/mL (≈ 2.66 µM) | MIC Enterococcus faecium (GC 2243) ([2]; inoculum 5×10^5 CFU/mL): 2 µg/mL (≈ 1.33 µM) | MIC Enterococcus faecalis (GC 2691) ([2]; inoculum 5×10^5 CFU/mL): 2 µg/mL (≈ 1.33 µM) | MIC Enterococcus faecalis (GC 3059) ([2]; inoculum 5×10^5 CFU/mL): 2 µg/mL (≈ 1.33 µM) | MIC Enterococcus faecalis (GC 4552) ([2]; inoculum 5×10^5 CFU/mL): 2 µg/mL (≈ 1.33 µM) | MIC Enterococcus faecalis (GC 4553) ([2]; inoculum 5×10^5 CFU/mL): 2 µg/mL (≈ 1.33 µM) | MIC Enterococcus faecalis (GC 4554) ([2]; inoculum 5×10^5 CFU/mL): 2 µg/mL (≈ 1.33 µM) | MIC Enterococcus faecium (GC 4556) ([2]; inoculum 5×10^5 CFU/mL): 2 µg/mL (≈ 1.33 µM) | MIC Enterococcus faecium (GC 4557) ([2]; inoculum 5×10^5 CFU/mL): 2 µg/mL (≈ 1.33 µM) | MIC Enterococcus avium (GC 4558) ([2]; inoculum 5×10^5 CFU/mL): 2 µg/mL (≈ 1.33 µM) | MIC Enterococcus faecalis (GC 6189) ([2]; inoculum 5×10^5 CFU/mL): 2 µg/mL (≈ 1.33 µM) | MIC Enterococcus faecalis (ATCC 29212) [2]: 4 µg/mL (≈ 2.66 µM) | MIC Enterococcus faecalis (GC 2242) [2]: 4 µg/mL (≈ 2.66 µM) | MIC Enterococcus faecium (GC 2243) [2]: 2 µg/mL (≈ 1.33 µM) | MIC Enterococcus faecalis (GC 2691) [2]: 2 µg/mL (≈ 1.33 µM) | MIC Enterococcus faecalis (GC 3059) [2]: 2 µg/mL (≈ 1.33 µM) | MIC Enterococcus faecalis (GC 4552) [2]: 2 µg/mL (≈ 1.33 µM) | MIC Enterococcus faecalis (GC 4553) [2]: 2 µg/mL (≈ 1.33 µM) | MIC Enterococcus faecalis (GC 4554) [2]: 2 µg/mL (≈ 1.33 µM) | MIC Enterococcus faecium (GC 4556) [2]: 2 µg/mL (≈ 1.33 µM) | MIC Enterococcus faecium (GC 4557) [2]: 2 µg/mL (≈ 1.33 µM) | MIC Enterococcus avium (GC 4558) [2]: 2 µg/mL (≈ 1.33 µM) | MIC Enterococcus faecalis (GC 6189) [2]: 2 µg/mL (≈ 1.33 µM) | MIC Escherichia coli (ATCC 25922) ([3]; strain ATCC 25922, 18 hours at 35° C.): >64 µg/mL | MIC Escherichia coli (GC 4559) ([3]; strain GC 4559, 18 hours at 35° C.): 64 µg/mL (≈ 42.5 µM) | MIC Escherichia coli (GC 4560) ([3]; strain GC 4560, 18 hours at 35° C.): 2 µg/mL (≈ 1.33 µM) | MIC Streptococcus pneumoniae (ATCC 6301) ([4]; inoculum 5×10^5 CFU/mL): <0.06 µg/mL | MIC Streptococcus pneumoniae (GC 1894) ([4]; inoculum 5×10^5 CFU/mL): <0.06 µg/mL | MIC Streptococcus pyogenes (GC 4563) ([4]; inoculum 5×10^5 CFU/mL): <0.06 µg/mL | MIC Streptococcus agalactiae (GC 4564) ([4]; inoculum 5×10^5 CFU/mL): <0.06 µg/mL | MIC Streptococcus pneumoniae (GC 4565) ([4]; inoculum 5×10^5 CFU/mL): <0.06 µg/mL | MIC Streptococcus pneumoniae (ATCC 6301) [4]: <0.06 µg/mL | MIC Streptococcus pneumoniae (GC 1894) [4]: <0.06 µg/mL | MIC Streptococcus pyogenes (GC 4563) [4]: <0.06 µg/mL | MIC Streptococcus agalactiae (GC 4564) [4]: <0.06 µg/mL | MIC Streptococcus pneumoniae (GC 4565) [4]: <0.06 µg/mL | median effective dose (ED50), Staphylococcus aureus-SMITH (GC 4543) [5]: 0.05 mg/kg
